The supplement of paper PMC10011410
± gives the standard deviation of the averaged measurements.

Assays:
U-2 OS [1] = experiment: intracellular GSH:GSSG ratio (calculated); higher = more reduced glutathione pool; conditions: 24 h
Method: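 Intracellular glutathione in U-2 OS cells after 24 h compound treatment at 5, 10 and 20 uM (some at 40 and 80 uM). Total glutathione and GSSG were measured with the GSH/GSSG-Glo kit, and the GSH:GSSG ratio was calculated. Mean of five technical replicate plates.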

U-2 OS [2] = experiment: cell viability (CellTiter-Glo) relative to DMSO (% of control); higher = more viable; conditions: 24 h
Method: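 Cell viability of U-2 OS cells by CellTiter-Glo after 24 h compound treatment at 5, 10 and 20 uM (some at 40 and 80 uM), measured in parallel with the glutathione assay, as percent of DMSO control. Five technical replicate plates, averaged.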

U-2 OS [3] = experiment: total intracellular glutathione (GSH + GSSG) relative to DMSO (% of control); higher = more glutathione; conditions: 24 h
Method: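 Total intracellular glutathione (GSH + GSSG) in U-2 OS cells by GSH/GSSG-Glo after 24 h compound treatment at 5, 10 and 20 uM (some at 40 and 80 uM), as percent of DMSO control. Five technical replicate plates, averaged.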

U-2 OS [4] = experiment: cell painting activity score (Mahalanobis distance from DMSO wells); higher = stronger morphological phenotype; conditions: 24 h
Procedure, shortened: (§1)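 Using 384-well plates holding about 1,500 U-2 OS cells per well, treatment was applied by pin tool for 24 h at 37 °C, generally at six 2-fold concentrations ranging from 20 μM to 625 nM. Staining with MitoTracker, concanavalin A, phalloidin, wheat germ agglutinin, Hoechst and SYTO 14 preceded Opera Phenix imaging and CellProfiler feature extraction against DMSO cells on the same plate. Activity score and cell count are both referenced to DMSO wells, the former as a Mahalanobis distance. Four replicate plates were averaged for every value.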

U-2 OS [5] = experiment: relative cell count vs DMSO (cell painting) (fraction of DMSO control); higher = more cells remaining (less cytotoxic); conditions: 24 h
Procedure, shortened: as §1

U-2 OS [6] = experiment: AUC of culture confluence over time (live-cell imaging) (AUC (confluence % x time)); higher = more confluent culture (less growth inhibition)
Procedure, shortened: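 Each value is the area under a curve of confluence over time for U-2 OS cells. The cells, in F-12K medium with 10% FBS, were plated at 750 per well in 384-well plates and dosed by pin tool 24 h later, most compounds at 20, 10 and 5 μM with 0.2% DMSO. They were held at 37 °C and imaged every 4 h for up to 60 h.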

Row | SMILES | intracellular GSH:GSSG ratio (U-2 OS [1]; 5 µM) | intracellular GSH:GSSG ratio (U-2 OS [1]; 10 µM) | intracellular GSH:GSSG ratio (U-2 OS [1]; 20 µM) | intracellular GSH:GSSG ratio (U-2 OS [1]; 40 µM) | intracellular GSH:GSSG ratio (U-2 OS [1]; 80 µM) | cell viability (U-2 OS [2]; 5 µM) | cell viability (U-2 OS [2]; 10 µM) | cell viability (U-2 OS [2]; 20 µM) | cell viability (U-2 OS [2]; 40 µM) | cell viability (U-2 OS [2]; 80 µM) | total intracellular glutathione (U-2 OS [3]; 5 µM) | total intracellular glutathione (U-2 OS [3]; 10 µM) | total intracellular glutathione (U-2 OS [3]; 20 µM) | total intracellular glutathione (U-2 OS [3]; 40 µM) | total intracellular glutathione (U-2 OS [3]; 80 µM) | cell painting activity score (U-2 OS [4]; 0.625 µM) | cell painting activity score (U-2 OS [4]; 1.25 µM) | cell painting activity score (U-2 OS [4]; 2.5 µM) | cell painting activity score (U-2 OS [4]; 5 µM) | cell painting activity score (U-2 OS [4]; 10 µM) | cell painting activity score (U-2 OS [4]; 20 µM) | relative cell count (U-2 OS [5]; 0.625 µM) | relative cell count (U-2 OS [5]; 1.25 µM) | relative cell count (U-2 OS [5]; 2.5 µM) | relative cell count (U-2 OS [5]; 5 µM) | relative cell count (U-2 OS [5]; 10 µM) | relative cell count (U-2 OS [5]; 20 µM) | cell painting activity score (U-2 OS [4]; 40 µM) | cell painting activity score (U-2 OS [4]; 80 µM) | relative cell count (U-2 OS [5]; 40 µM) | relative cell count (U-2 OS [5]; 80 µM) | AUC of culture confluence over time (U-2 OS [6]; 5 µM) | AUC of culture confluence over time (U-2 OS [6]; 10 µM) | AUC of culture confluence over time (U-2 OS [6]; 20 µM) | AUC of culture confluence over time (U-2 OS [6]; 40 µM) | AUC of culture confluence over time (U-2 OS [6]; 80 µM)
1 | C=C1C(=O)O[C@H](CCC)[C@H]1C(=O)O | 21.5 | 22.5 | 22.9 | 25.2 | 20.4 | 91.7 ± 2.8 | 98.6 ± 6 | 95.5 ± 5.5 | 105 ± 3.7 | 105 ± 7.9 | 95.1 ± 3.1 | 90.6 ± 6.3 | 94.2 ± 5.9 | 97.6 ± 5.4 | 100 ± 4 | 3.78 | 4.58 | 3.59 | 4.83 | 3.69 | 5.28 | 1.06 | 1.04 | 1.06 | 0.973 | 1.07 | 1.01 | – | – | – | – | – | – | – | – | –
2 | CN(C)C/C=C/C(=O)Nc1ccc(C(=O)Nc2cccc(Nc3ncc(Cl)c(-c4c[nH]c5ccccc45)n3)c2)cc1 | 2.92 | 3.73 | 6.62 | – | – | 34.1 ± 4.7 | 31 ± 4.3 | 10.8 ± 2.7 | – | – | 26.7 ± 2.8 | 20.6 ± 2.5 | 11.6 ± 2.1 | – | – | 22.6 | 23.3 | 23.3 | 19.2 | 18.5 | 29.4 | 0.429 | 0.45 | 0.407 | 0.251 | 0.152 | 0.164 | – | – | – | – | – | – | – | – | –
3 | CC(Cc1ccc(O)c(O)c1)C(C)Cc1ccc(O)c(O)c1 (stereo not given) | 24 | 47.5 | 22.3 | 22.5 | – | 101 ± 4 | 104 ± 8.2 | 100 ± 5.4 | 87.1 ± 6.5 | 0.624 ± 0.073 | – | – | – | – | – | 4.39 | 8.68 | 11.8 | 13.1 | 15.4 | 12.1 | 0.839 | 0.852 | 0.896 | 0.816 | 0.835 | 0.359 | 17.4 | 22.6 | 0.261 | 0.228 | 42.1 | 39.8 | 43.8 | 28.7 | 19.1
4 | c1cc(SSc2ccns2)sn1 | 24.1 | 6.28 | 4.87 | 0.0649 | – | 94.5 ± 3.6 | 62.9 ± 10 | 29 ± 8.2 | 2.06 ± 0.76 | 0.459 ± 0.058 | 93.2 ± 6.5 | 67.1 ± 14 | 31.5 ± 34 | 25.6 ± 43 | 22.5 ± 43 | 5.35 | 4.46 | 6.31 | 8.63 | 14.8 | 17.2 | 0.85 | 0.816 | 0.752 | 0.635 | 0.137 | 0.116 | – | – | – | – | – | – | – | – | –
5 | COc1cccc2c1C(=O)c1c(O)c3c(c(O)c1C2=O)C[C@@](O)(C(=O)CO)C[C@@H]3O[C@H]1C[C@H](N)[C@H](O)[C@H](C)O1 | 12.1 | 13 | 5.76 | – | – | 54.3 ± 2.8 | 38.7 ± 6.3 | 21.7 ± 1.3 | – | – | 51.8 ± 7.2 | 34.9 ± 5.7 | 18.7 ± 1.3 | – | – | 15.7 ± 0.51 | 17.8 ± 2.5 | 18.5 ± 2.1 | 19.7 ± 0.41 | 20.8 ± 0.47 | 24.3 ± 0.053 | 0.473 ± 0.035 | 0.5 ± 0.033 | 0.431 ± 0.044 | 0.404 ± 0.081 | 0.311 ± 0.025 | 0.2492 ± 0.0023 | – | – | – | – | – | – | – | – | –
6 | COc1ccc(/C(Cl)=C(/C=O)c2ccc(OC)cc2)cc1 | 22.2 | 14.8 | 3.39 | 4.6 | 1.06 | 102 ± 5.1 | 87.1 ± 4.2 | 49.8 ± 6 | 44.2 ± 3.5 | 6.75 ± 0.88 | 115 ± 4.6 | 108 ± 6.8 | 51.8 ± 4.8 | 49.4 ± 2.6 | 8.12 ± 0.4 | 6.48 | 7.76 | 8.89 | 10.2 | 11.7 | 14.5 | 0.912 | 0.934 | 0.941 | 0.937 | 0.849 | 0.395 | 16.2 | 34 | 0.442 | 0.0713 | – | – | – | – | –
7 | NC1CS(=O)(=O)c2ccccc21 (stereo not given) | 3.24 | – | – | – | – | 56.6 ± 6.3 | 58 ± 7.3 | 56.7 ± 7.8 | – | – | 51.9 ± 5.3 | 51.6 ± 4.8 | 45.5 ± 3.2 | – | – | 4.42 | 4.19 | 4.72 | 3.88 | 3.43 | 4.56 | 0.986 | 1.06 | 1.06 | 1.07 | 1.06 | 1.04 | – | – | – | – | – | – | – | – | –
